Data reported in ChEMBL document CHEMBL1135787, “Synthesis of new molecular probes for investigation of steroid biosynthesis induced by selective interaction with peripheral type benzodiazepine receptors (PBR)” (J Med Chem, 2002).

Tests used:
Translocator protein [1] = target: T1, Translocator protein (Rattus norvegicus, UniProt P16257); experiment: Inhibition of [3H]PK11195 binding to Peripheral type benzodiazepine receptor (PBR) in rat cortex homogenate by 50%
[2] = Stimulatory effect on progesterone biosynthesis in MA10 leydig cells; assay type: functional, Mus musculus
Translocator protein [3] = target: T1, Translocator protein; experiment: Inhibition of [3H]PK11195 binding to mitochondrial rat testis Peripheral type benzodiazepine receptor (PBR)
Translocator protein [4] = target: T1, Translocator protein; experiment: Inhibition of [3H]Ro-5-4864 binding to mitochondrial rat testis Peripheral type benzodiazepine receptor (PBR)

T1 sequence (P16257 whole entry, looked up): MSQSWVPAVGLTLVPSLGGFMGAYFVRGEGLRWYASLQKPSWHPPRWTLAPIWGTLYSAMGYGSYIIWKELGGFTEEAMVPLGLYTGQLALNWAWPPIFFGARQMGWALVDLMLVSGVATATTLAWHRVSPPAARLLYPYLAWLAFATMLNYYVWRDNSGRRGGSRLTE

Compound: CCN(CC)C(=O)OC1=C(c2cccc(C)c2)Oc2ccccc2-n2cccc21
- Ki (Translocator protein [1]): 1.2 nM

Compound: O=C(OC1=C(c2ccccc2)Oc2ccccc2-n2cccc21)N1CCC1
- Progesterone production [2]: 3.5 ng 2hr-1 (10e5*cells)-1
- Ki (Translocator protein [3]): 6 nM
- Ki (Translocator protein [1]): 6.03 nM
- Ki (Translocator protein [4]): 4.3 nM

Compound: CC(=O)OC1=C(c2cccc(C)c2)Oc2ccccc2-n2cccc21
- Ki (Translocator protein [1]): 2.5 nM

Compound: Cc1ccc(C2=C(OC(=O)N(C)C)c3cccn3-c3ncccc3O2)cc1
- Ki (Translocator protein [1]): 0.44 nM

Compound: CCN(CC)C(=O)OC1=C(c2ccccc2)Cc2ccccc2-n2cccc21
- Ki (Translocator protein [1]): 5.7 nM

Compound: CCN(CC)C(=O)OC1=C(c2ccccc2)Oc2cccnc2-n2cccc21
- Progesterone production [2]: 3.5 ng 2hr-1 (10e5*cells)-1
- Ki (Translocator protein [3]): 11 nM
- Ki (Translocator protein [1]): 1.77 nM
- Ki (Translocator protein [4]): 22 nM

Compound: CC(=O)OC1=C(c2ccc(C)cc2)Oc2cccnc2-n2cccc21
- Ki (Translocator protein [1]): 13.5 nM

Compound: CCCN(C)C(=O)OC1=C(c2ccccc2)Oc2ccccc2-n2cccc21
- Ki (Translocator protein [1]): 0.69 nM

Compound: CCN(C)C(=O)OC1=C(c2ccccc2)Oc2ccccc2-n2cccc21
- Ki (Translocator protein [1]): 0.78 nM

Compound: CCNC(=O)OC1=C(c2ccccc2)Oc2ccccc2-n2cccc21
- Progesterone production [2]: 3.3 ng 2hr-1 (10e5*cells)-1
- Ki (Translocator protein [3]): 0.2 nM
- Ki (Translocator protein [1]): 0.11 nM
- Ki (Translocator protein [4]): 0.1 nM

Compound: CCCCN(C)C(=O)OC1=C(c2ccccc2)Oc2ccccc2-n2cccc21
- Ki (Translocator protein [1]): 0.92 nM

Compound: CN1CCN(C(=O)OC2=C(c3ccccc3)Oc3ccccc3-n3cccc32)CC1
- Progesterone production [2]: 3.8 ng 2hr-1 (10e5*cells)-1
- Ki (Translocator protein [3]): 29 nM
- Ki (Translocator protein [1]): 7.2 nM
- Ki (Translocator protein [4]): 15 nM

Compound: CCC(C)N(C)C(=O)c1cc2ccccc2c(-c2ccccc2Cl)n1 (configuration not stated) [PK-11195]
- Progesterone production [2]: 3.4 ng 2hr-1 (10e5*cells)-1

Compound: CCN(CC)C(=O)OC1=C(c2cccs2)Oc2cccnc2-n2cccc21
- Ki (Translocator protein [1]): 0.23 nM

Compound: CCCNC(=O)OC1=C(c2ccccc2)Oc2ccccc2-n2cccc21
- Ki (Translocator protein [1]): 0.91 nM

Compound: O=C1CN=C(c2ccccc2Cl)c2cc([N+](=O)[O-])ccc2N1 [CLONAZEPAM]
- Progesterone production [2]: 2.3 ng 2hr-1 (10e5*cells)-1

Compound: CCN(CC)C(=O)OC1=C(c2cccs2)Oc2ccccc2-n2cccc21
- Ki (Translocator protein [1]): 11.5 nM

Compound: O=C(NC1CC1)OC1=C(c2ccccc2)Oc2ccccc2-n2cccc21
- Progesterone production [2]: 3.5 ng 2hr-1 (10e5*cells)-1
- Ki (Translocator protein [3]): 0.31 nM
- Ki (Translocator protein [1]): 2.21 nM
- Ki (Translocator protein [4]): 0.47 nM

Compound: CCNC(=O)OC1=C(c2ccccc2)Oc2c(Cl)cccc2-n2cccc21
- Ki (Translocator protein [1]): 0.18 nM

Compound: CCNC(=O)OC1=C(c2ccc(C)cc2)Oc2ccccc2-n2cccc21
- Ki (Translocator protein [1]): 0.68 nM

Compound: CCN(CC)C(=O)OC1=C(c2cc(F)cc(F)c2)Oc2ccccc2-n2cccc21
- Ki (Translocator protein [1]): 1.26 nM

Compound: CCN(CC)C(=O)OC1=C(c2cccc(C)c2)Oc2cccnc2-n2cccc21
- Ki (Translocator protein [1]): 0.56 nM
